Results reported in ChEMBL document CHEMBL1201861, “Genomics of Drug Sensitity in Cancer screening data, Wellcome Trust Sanger Institute”.

Assays:
A-375 = assay: cells; format: functional, cell-based; conditions: Homo sapiens;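 note: growth inhibition of A375 cells, read out with a cell viability assay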
Description: SANGER: Inhibition of human A375 cell growth in a cell viability assay.

COLO-680N = assay: cells; format: functional, cell-based; conditions: Homo sapiens;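 note: cell viability assay used to measure inhibition of COLO-680N cell growth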
Description: SANGER: Inhibition of human COLO-680N cell growth in a cell viability assay.

C-33-A = assay: cells; format: functional, cell-based; conditions: Homo sapiens;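 note: cell viability assay measuring growth inhibition of C-33-A cells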
Description: SANGER: Inhibition of human C-33-A cell growth in a cell viability assay.

PC-14 = assay: cells; format: functional, cell-based; conditions: Homo sapiens;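 note: cell viability assay measuring inhibition of PC-14 cell growth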
Description: SANGER: Inhibition of human PC-14 cell growth in a cell viability assay.

HuP-T4 = assay: cells; format: functional, cell-based; conditions: Homo sapiens;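 note: cell viability assay measuring how much HuP-T4 cell growth is inhibited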
Description: SANGER: Inhibition of human HuP-T4 cell growth in a cell viability assay.

U2OS = assay: cells; format: functional, cell-based, U-2-OS; conditions: Homo sapiens;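 note: growth inhibition of human U-2-OS cells, determined with a cell viability assay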
Description: SANGER: Inhibition of human U-2-OS cell growth in a cell viability assay.

HCC1806 = assay: cells; format: functional, cell-based; conditions: Homo sapiens;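 note: growth inhibition of the cancer cell line, determined with a cell viability assay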
Description: SANGER: Inhibition of human HCC1806 cell growth in a cell viability assay.

COR-L23 = assay: cells; format: functional, cell-based; conditions: Homo sapiens;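 note: cell viability assay measuring how strongly compounds suppress growth of COR-L23 cells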
Description: SANGER: Inhibition of human COR-L23 cell growth in a cell viability assay.

MHH-ES-1 = assay: cells; format: functional, cell-based; conditions: Homo sapiens
Description: SANGER: Inhibition of human MHH-ES-1 cell growth in a cell viability assay.

COLO-679 = assay: cells; format: functional, cell-based; conditions: Homo sapiens
Description: SANGER: Inhibition of human COLO-679 cell growth in a cell viability assay.

KU-19-19 = assay: cells; format: functional, cell-based; conditions: Homo sapiens
Description: SANGER: Inhibition of human KU-19-19 cell growth in a cell viability assay.

Capan-2 = assay: cells; format: functional, cell-based; conditions: Homo sapiens;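 note: Capan-2 cell growth inhibition, read out with a viability assay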
Description: SANGER: Inhibition of human Capan-2 cell growth in a cell viability assay.

639-V = assay: cells; format: functional, cell-based; conditions: Homo sapiens;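 note: growth inhibition of 639-V cells, read out with a cell viability assay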
Description: SANGER: Inhibition of human 639-V cell growth in a cell viability assay.

OAW-28 = assay: cells; format: functional, cell-based; conditions: Homo sapiens;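 note: growth inhibition of OAW-28 cells, read out with a cell viability assay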
Description: SANGER: Inhibition of human OAW-28 cell growth in a cell viability assay.

UACC-893 = assay: cells; format: functional, cell-based; conditions: Homo sapiens
Description: SANGER: Inhibition of human UACC-893 cell growth in a cell viability assay.

NCI-H1693 = assay: cells; format: functional, cell-based; conditions: Homo sapiens;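 note: growth inhibition of the human cell line, read out with a cell viability assay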
Description: SANGER: Inhibition of human NCI-H1693 cell growth in a cell viability assay.

MDA-MB-157 = assay: cells; format: functional, cell-based; conditions: Homo sapiens
Description: SANGER: Inhibition of human MDA-MB-157 cell growth in a cell viability assay.

COLO-792 = assay: cells; format: functional, cell-based; conditions: Homo sapiens
Description: SANGER: Inhibition of human COLO-792 cell growth in a cell viability assay.

786-0 = assay: cells; format: functional, cell-based; conditions: Homo sapiens
Description: SANGER: Inhibition of human 786-0 cell growth in a cell viability assay.

LU-99A = assay: cells; format: functional, cell-based; conditions: Homo sapiens;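 note: growth inhibition of LU-99A cells, read out with a cell viability assay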
Description: SANGER: Inhibition of human LU-99A cell growth in a cell viability assay.

SBC-5 = assay: cells; format: functional, cell-based; conditions: Homo sapiens;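 note: cell viability assay read-out, IC50 is the concentration that inhibits growth of the cells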
Description: SANGER: Inhibition of human SBC-5 cell growth in a cell viability assay.

SAS = assay: cells; format: functional, cell-based; conditions: Homo sapiens;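 note: growth inhibition of SAS cells, read out with a cell viability assay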
Description: SANGER: Inhibition of human SAS cell growth in a cell viability assay.

KYSE-520 cell line = assay: cells; format: functional, cell-based; conditions: Homo sapiens;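 note: growth inhibition of human KYSE-520 cells, read out with a viability assay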
Description: SANGER: Inhibition of human KYSE-520 cell growth in a cell viability assay.

SW1710 = assay: cells; format: functional, cell-based; conditions: Homo sapiens;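 note: growth inhibition of SW1710 cells, determined with a cell viability assay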
Description: SANGER: Inhibition of human SW1710 cell growth in a cell viability assay.

YAPC = assay: cells; format: functional, cell-based; conditions: Homo sapiens;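 note: growth inhibition of YAPC cells, measured with a cell viability assay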
Description: SANGER: Inhibition of human YAPC cell growth in a cell viability assay.

HEC-1 = assay: cells; format: functional, cell-based; conditions: Homo sapiens;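 note: growth inhibition of the cell line, read out with a cell viability assay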
Description: SANGER: Inhibition of human HEC-1 cell growth in a cell viability assay.

Huh-7 = assay: cells; format: functional, cell-based; conditions: Homo sapiens;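 note: HuH-7 cell growth inhibition, read out with a cell viability assay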
Description: SANGER: Inhibition of human HuH-7 cell growth in a cell viability assay.

SKG-IIIa = assay: cells; format: functional, cell-based; conditions: Homo sapiens;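 note: cell growth inhibition, read out with a cell viability assay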
Description: SANGER: Inhibition of human SKG-IIIa cell growth in a cell viability assay.

NCI-H2170 = assay: cells; format: functional, cell-based; conditions: Homo sapiens;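 note: cell viability assay measuring growth inhibition of human NCI-H2170 cancer cells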
Description: SANGER: Inhibition of human NCI-H2170 cell growth in a cell viability assay.

A-431 = assay: cells; format: functional, cell-based; conditions: Homo sapiens;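 note: growth inhibition of A-431 cells, determined with a cell viability read-out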
Description: SANGER: Inhibition of human A431 cell growth in a cell viability assay.

OE33 = assay: cells; format: functional, cell-based; conditions: Homo sapiens;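 note: growth inhibition of human OE33 cells, measured by a cell viability assay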
Description: SANGER: Inhibition of human OE33 cell growth in a cell viability assay.

HLE = assay: cells; format: functional, cell-based; conditions: Homo sapiens;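 note: growth inhibition of human HLE cells, read out by a cell viability assay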
Description: SANGER: Inhibition of human HLE cell growth in a cell viability assay.

CaR-1 = assay: cells; format: functional, cell-based; conditions: Homo sapiens;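 note: growth inhibition of human CaR-1 cancer cells, read out with a cell viability assay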
Description: SANGER: Inhibition of human CaR-1 cell growth in a cell viability assay.

LoVo = assay: cells; format: functional, cell-based; conditions: Homo sapiens;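 note: growth inhibition of human LoVo cells, read out with a cell viability assay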
Description: SANGER: Inhibition of human LoVo cell growth in a cell viability assay.

CAL-39 = assay: cells; format: functional, cell-based; conditions: Homo sapiens;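 note: cell viability assay measuring growth inhibition of CAL-39 cells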
Description: SANGER: Inhibition of human CAL-39 cell growth in a cell viability assay.

KP-N-YN = assay: cells; format: functional, cell-based; conditions: Homo sapiens;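 note: growth inhibition of KP-N-YN cells, read out with a cell viability assay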
Description: SANGER: Inhibition of human KP-N-YN cell growth in a cell viability assay.

SW626 = assay: cells; format: functional, cell-based; conditions: Homo sapiens;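 note: growth inhibition of SW626 cells, measured with a cell viability assay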
Description: SANGER: Inhibition of human SW626 cell growth in a cell viability assay.

PFSK-1 = assay: cells; format: functional, cell-based; conditions: Homo sapiens;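 note: cell viability assay measuring how strongly compounds suppress growth of human PFSK-1 cells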
Description: SANGER: Inhibition of human PFSK-1 cell growth in a cell viability assay.

HCC 2998 = assay: cells; format: functional, cell-based; conditions: Homo sapiens;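 note: growth inhibition of human HCC2998 cells, measured with a cell viability read-out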
Description: SANGER: Inhibition of human HCC2998 cell growth in a cell viability assay.

769-P = assay: cells; format: functional, cell-based; conditions: Homo sapiens
Description: SANGER: Inhibition of human 769-P cell growth in a cell viability assay.

ST486 = assay: SANGER: Inhibition of human ST486 cell growth in a cell viability assay.; format: functional, cell-based; conditions: Homo sapiens, ST486
EHEB = assay: cells; format: functional, cell-based; conditions: Homo sapiens;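 note: growth inhibition of human EHEB cells, read out with a cell viability assay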
Description: SANGER: Inhibition of human EHEB cell growth in a cell viability assay.

U-698-M = assay: cells; format: functional, cell-based, Homo sapiens; conditions: Homo sapiens, U-698-M
Description: SANGER: Inhibition of human U-698-M cell growth in a cell viability assay.

SU-DHL-1 = assay: SANGER: Inhibition of human SU-DHL-1 cell growth in a cell viability assay.; format: functional, cell-based; conditions: Homo sapiens, SU-DHL-1
THP-1 = assay: cells; format: functional, cell-based, Homo sapiens; conditions: Homo sapiens, THP-1;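 note: growth inhibition of THP-1 cells, read out via a cell viability assay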
Description: SANGER: Inhibition of human THP-1 cell growth in a cell viability assay.

WSU-NHL = assay: cells; format: functional, cell-based, Homo sapiens; conditions: Homo sapiens, WSU-NHL;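 note: growth inhibition of human WSU-NHL cells, read out with a cell viability assay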
Description: SANGER: Inhibition of human WSU-NHL cell growth in a cell viability assay.

BL-41 = assay: cells; format: functional, cell-based; conditions: Homo sapiens;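 note: growth inhibition of human BL-41 cells, read out with a cell viability assay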
Description: SANGER: Inhibition of human BL-41 cell growth in a cell viability assay.

LB373-MEL-D = assay: cells; format: functional, cell-based, Homo sapiens; conditions: Homo sapiens, LB373-MEL-D;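 note: growth inhibition of the cell line, read out in a cell viability assay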
Description: SANGER: Inhibition of human LB373-MEL-D cell growth in a cell viability assay.

DG-75 = assay: cells; format: functional, cell-based, Homo sapiens; conditions: Homo sapiens, DG-75;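 note: growth inhibition of DG-75 cells, read out with a cell viability assay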
Description: SANGER: Inhibition of human DG-75 cell growth in a cell viability assay.

NCI-H322M = assay: cells; format: functional, cell-based, Homo sapiens; conditions: Homo sapiens, NCI-H322M;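 note: cell viability assay measuring inhibition of growth of human NCI-H322M cells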
Description: SANGER: Inhibition of human NCI-H322M cell growth in a cell viability assay.

NCI-H1522 = assay: cells; format: functional, cell-based, Homo sapiens; conditions: Homo sapiens, NCI-H1522;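 note: growth inhibition of NCI-H1522 cells, read out with a cell viability assay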
Description: SANGER: Inhibition of human NCI-H1522 cell growth in a cell viability assay.

RL = assay: cells; format: functional, cell-based, Homo sapiens; conditions: Homo sapiens, RL
Description: SANGER: Inhibition of human RL cell growth in a cell viability assay.

TE-15 = assay: cells; format: functional, cell-based, Homo sapiens; conditions: Homo sapiens, TE-15;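 note: cell viability readout of growth inhibition in TE-15 cells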
Description: SANGER: Inhibition of human TE-15 cell growth in a cell viability assay.

NCI-H524 = assay: cells; format: functional, cell-based, Homo sapiens; conditions: Homo sapiens, NCI-H524;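 note: growth inhibition of human NCI-H524 cells, read out through a cell viability assay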
Description: SANGER: Inhibition of human NCI-H524 cell growth in a cell viability assay.

EB2 = assay: cells; format: functional, cell-based, Homo sapiens; conditions: Homo sapiens, EB2;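 note: growth inhibition of EB2 cells, read out with a cell viability assay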
Description: SANGER: Inhibition of human EB2 cell growth in a cell viability assay.

NCI-H1417 = assay: cells; format: functional, cell-based, Homo sapiens; conditions: Homo sapiens, NCI-H1417;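 note: human NCI-H1417 cells, growth inhibition determined with a cell viability readout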
Description: SANGER: Inhibition of human NCI-H1417 cell growth in a cell viability assay.

BL-70 = assay: SANGER: Inhibition of human BL-70 cell growth in a cell viability assay.; format: functional, cell-based; conditions: Homo sapiens, BL-70
DMS-79 = assay: cells; format: functional, cell-based, Homo sapiens; conditions: Homo sapiens, DMS-79
Description: SANGER: Inhibition of human DMS-79 cell growth in a cell viability assay.

Measured: IC50

CS(=O)(=O)N1CCN(Cc2cc3nc(-c4cccc5[nH]ncc45)nc(N4CCOCC4)c3s2)CC1 [PICTILISIB]
3.83 µM: 769-P
3.37 µM: COR-L23
0.516 µM: KU-19-19
2.03 µM: CAL-39
2.59 µM: 786-0
1.61 µM: HuP-T4
2.27 µM: A-431
3.14 µM: U2OS
2.66 µM: SKG-IIIa
0.778 µM: LoVo
2.82 µM: MDA-MB-157
1.5 µM: 639-V
1.04 µM: SW1710
1.21 µM: Huh-7
1.94 µM: PFSK-1
3.73 µM: PC-14
not listed: ST486 | EHEB | U-698-M | SU-DHL-1 | THP-1 | WSU-NHL | BL-41 | LB373-MEL-D | DG-75 | NCI-H322M | NCI-H1522 | RL | TE-15 | NCI-H524 | EB2 | NCI-H1417 | BL-70 | DMS-79
> 4 µM: all other assays above

Nc1ccccc1NC(=O)c1ccc(CNC(=O)OCc2cccnc2)cc1 [ENTINOSTAT]
0.554 µM: NCI-H524
2.54 µM: DMS-79
0.659 µM: SU-DHL-1
0.879 µM: ST486
> 5 µM: U-698-M | THP-1 | WSU-NHL | NCI-H322M | RL | TE-15 | EB2
0.857 µM: BL-70
0.926 µM: EHEB
0.13 µM: NCI-H1417
0.784 µM: HCC 2998
0.569 µM: BL-41
2.22 µM: NCI-H1522
2.27 µM: LB373-MEL-D | DG-75

CC(C)C[C@H](NC(=O)[C@H](Cc1ccccc1)NC(=O)c1cnccn1)B(O)O [BORTEZOMIB]
0.00212 µM: BL-70
0.0181 µM: EB2
0.00125 µM: BL-41
0.00343 µM: TE-15
0.000412 µM: HCC 2998
0.00724 µM: SU-DHL-1
0.00551 µM: NCI-H1417
0.0007 µM: LB373-MEL-D
0.0186 µM: DG-75
0.00167 µM: EHEB
> 0.02 µM: ST486 | U-698-M | THP-1 | WSU-NHL | NCI-H322M | NCI-H1522 | RL | NCI-H524 | DMS-79

O=C(NCCCNc1nc(Nc2cccc(NC(=O)N3CCCC3)c2)ncc1I)c1cccs1 [BX-795]
4.02 µM: COR-L23
1.72 µM: MDA-MB-157
4.82 µM: Huh-7
2.76 µM: A-431
1.31 µM: A-375
2.73 µM: MHH-ES-1
1.59 µM: U2OS
4.31 µM: CAL-39
2.29 µM: SW1710
4.09 µM: HEC-1
not listed: ST486 | EHEB | U-698-M | SU-DHL-1 | THP-1 | WSU-NHL | BL-41 | LB373-MEL-D | DG-75 | NCI-H322M | NCI-H1522 | RL | TE-15 | NCI-H524 | EB2 | NCI-H1417 | BL-70 | DMS-79
> 5 µM: all other assays above

O=C1NC(=O)c2c1c(-c1ccccc1Cl)cc1[nH]c3ccc(O)cc3c21
0.752 µM: COR-L23
1.52 µM: A-375
1.27 µM: U2OS
1.02 µM: 769-P
not listed: SW626 | ST486 | EHEB | U-698-M | SU-DHL-1 | THP-1 | WSU-NHL | BL-41 | LB373-MEL-D | DG-75 | NCI-H322M | NCI-H1522 | RL | TE-15 | NCI-H524 | EB2 | NCI-H1417 | BL-70 | DMS-79
> 2 µM: all other assays above

CN(C)CCOc1ccc(-c2nc(-c3ccncc3)c(-c3ccc4c(c3)CC/C4=N\O)[nH]2)cc1 [SB590885]
0.386 µM: COLO-679
3.67 µM: Huh-7
0.282 µM: A-375
not listed: UACC-893 | ST486 | EHEB | U-698-M | SU-DHL-1 | THP-1 | WSU-NHL | BL-41 | LB373-MEL-D | DG-75 | NCI-H322M | NCI-H1522 | RL | TE-15 | NCI-H524 | EB2 | NCI-H1417 | BL-70 | DMS-79
> 5 µM: all other assays above

NC1(c2ccc(-c3nc4ccn5c(=O)[nH]nc5c4cc3-c3ccccc3)cc2)CCC1 [MK-2206]
3.47 µM: SW1710
1.33 µM: LoVo
2.3 µM: OAW-28
3.09 µM: Huh-7
not listed: A-375 | UACC-893 | ST486 | EHEB | U-698-M | SU-DHL-1 | THP-1 | WSU-NHL | BL-41 | LB373-MEL-D | DG-75 | NCI-H322M | NCI-H1522 | RL | TE-15 | NCI-H524 | EB2 | NCI-H1417 | BL-70 | DMS-79
> 4 µM: all other assays above
